Experimental findings from article PMC5564600 (Oncotarget, 2017) are described below.

Holding throughout (assay type): binding
Test [1] addresses T1, panel of 442 kinases (Homo sapiens, UniProt Q04912).
T1 construct: purchased Ambit Biosciences (scanMAXX KINOMEscan)
Put plainly: biochemical. As to conditions: kinase MST1R; for remaining activity at 1 µM: read-out: % of control at 1 µM.

Test [2] concerns the target T2, panel of 442 kinases (Homo sapiens, UniProt Q8TDR2).
T2 construct: purchased Ambit Biosciences (scanMAXX KINOMEscan)
The test is described as follows: biochemical. As to conditions: kinase STK35; for remaining activity at 1 µM: read-out: STK35 (% of control at 1 µM).

Test [3] concerns the target T3, panel of 442 kinases (Homo sapiens, UniProt O15530).
T3 construct: purchased Ambit Biosciences (scanMAXX KINOMEscan)
T3 sequence (O15530 1-556): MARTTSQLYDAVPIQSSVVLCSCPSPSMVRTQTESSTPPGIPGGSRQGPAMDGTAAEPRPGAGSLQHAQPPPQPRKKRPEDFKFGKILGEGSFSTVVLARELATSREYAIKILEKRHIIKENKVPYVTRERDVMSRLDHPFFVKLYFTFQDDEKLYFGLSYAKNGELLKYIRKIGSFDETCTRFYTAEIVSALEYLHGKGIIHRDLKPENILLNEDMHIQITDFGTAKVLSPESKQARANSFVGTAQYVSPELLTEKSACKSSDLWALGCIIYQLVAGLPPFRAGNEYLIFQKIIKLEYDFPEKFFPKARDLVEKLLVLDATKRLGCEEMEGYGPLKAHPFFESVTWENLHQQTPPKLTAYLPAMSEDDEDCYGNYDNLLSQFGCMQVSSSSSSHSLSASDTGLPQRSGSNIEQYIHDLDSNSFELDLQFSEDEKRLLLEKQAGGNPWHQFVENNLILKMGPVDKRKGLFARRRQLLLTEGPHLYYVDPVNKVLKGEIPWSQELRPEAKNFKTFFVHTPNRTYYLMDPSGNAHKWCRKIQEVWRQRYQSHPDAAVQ
Put plainly: biochemical. As to conditions: kinase PDPK1; for remaining activity at 1 µM: read-out: % of control at 1 µM.

Test [4] deals with T4, panel of 442 kinases (Homo sapiens, UniProt Q99683).
T4 construct: purchased Ambit Biosciences (scanMAXX KINOMEscan)
T4 sequence (Q99683 1-1374): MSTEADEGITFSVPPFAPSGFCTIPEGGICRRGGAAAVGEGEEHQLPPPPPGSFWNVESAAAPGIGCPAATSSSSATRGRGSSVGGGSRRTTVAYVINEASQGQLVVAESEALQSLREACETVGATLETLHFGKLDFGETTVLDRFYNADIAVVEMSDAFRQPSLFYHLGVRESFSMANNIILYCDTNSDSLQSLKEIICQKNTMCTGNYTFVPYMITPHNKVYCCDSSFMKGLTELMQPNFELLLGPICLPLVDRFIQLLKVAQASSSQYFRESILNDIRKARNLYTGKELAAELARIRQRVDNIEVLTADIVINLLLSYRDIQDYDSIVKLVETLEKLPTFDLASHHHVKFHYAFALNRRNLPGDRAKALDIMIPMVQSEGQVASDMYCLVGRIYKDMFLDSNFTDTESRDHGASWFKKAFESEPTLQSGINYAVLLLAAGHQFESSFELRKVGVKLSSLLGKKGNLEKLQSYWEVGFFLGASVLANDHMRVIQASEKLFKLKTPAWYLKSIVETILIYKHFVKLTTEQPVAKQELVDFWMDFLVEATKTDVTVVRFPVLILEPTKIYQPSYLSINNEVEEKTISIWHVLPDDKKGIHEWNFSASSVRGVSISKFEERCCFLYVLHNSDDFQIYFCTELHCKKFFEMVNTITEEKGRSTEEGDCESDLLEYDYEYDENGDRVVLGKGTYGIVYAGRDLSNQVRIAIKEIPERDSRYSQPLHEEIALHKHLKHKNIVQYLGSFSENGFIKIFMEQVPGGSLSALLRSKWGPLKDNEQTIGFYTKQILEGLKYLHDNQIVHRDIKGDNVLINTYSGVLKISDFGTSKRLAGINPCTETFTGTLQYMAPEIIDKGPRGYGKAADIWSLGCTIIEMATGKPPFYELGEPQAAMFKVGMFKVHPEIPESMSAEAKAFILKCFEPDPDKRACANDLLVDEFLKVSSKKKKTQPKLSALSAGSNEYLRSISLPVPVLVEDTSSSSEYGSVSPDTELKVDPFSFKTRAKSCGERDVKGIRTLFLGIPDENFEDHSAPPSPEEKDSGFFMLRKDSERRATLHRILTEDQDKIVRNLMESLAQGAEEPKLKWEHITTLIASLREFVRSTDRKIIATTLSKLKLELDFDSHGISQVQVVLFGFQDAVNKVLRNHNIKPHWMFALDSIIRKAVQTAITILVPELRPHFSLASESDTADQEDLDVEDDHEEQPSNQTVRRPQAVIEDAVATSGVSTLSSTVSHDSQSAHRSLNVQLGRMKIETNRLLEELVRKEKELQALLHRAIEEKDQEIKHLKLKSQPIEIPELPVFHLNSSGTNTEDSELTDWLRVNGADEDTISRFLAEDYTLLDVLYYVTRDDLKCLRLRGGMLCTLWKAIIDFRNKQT
Put plainly: biochemical. As to conditions: ASK1; for remaining activity at 1 µM: read-out: % of control at 1 µM.

The target of test [5] is T5, panel of 442 kinases (Homo sapiens, UniProt P27037).
T5 construct: purchased Ambit Biosciences (scanMAXX KINOMEscan)
T5 sequence (P27037 20-513): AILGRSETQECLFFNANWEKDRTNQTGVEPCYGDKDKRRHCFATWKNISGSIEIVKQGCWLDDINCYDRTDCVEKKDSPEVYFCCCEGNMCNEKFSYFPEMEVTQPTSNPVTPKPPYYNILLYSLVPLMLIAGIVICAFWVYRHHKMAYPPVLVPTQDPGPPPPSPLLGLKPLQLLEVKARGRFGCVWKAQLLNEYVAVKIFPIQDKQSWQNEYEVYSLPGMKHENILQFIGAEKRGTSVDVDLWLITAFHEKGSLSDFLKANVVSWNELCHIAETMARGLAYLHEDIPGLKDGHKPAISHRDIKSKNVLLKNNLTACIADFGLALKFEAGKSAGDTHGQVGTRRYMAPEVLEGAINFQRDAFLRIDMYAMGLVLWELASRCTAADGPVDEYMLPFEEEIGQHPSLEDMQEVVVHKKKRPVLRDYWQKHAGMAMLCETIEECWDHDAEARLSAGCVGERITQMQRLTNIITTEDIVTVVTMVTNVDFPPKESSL
The test is described as follows: biochemical. As to conditions: ACVR2A; for remaining activity at 1 µM: read-out: % of control at 1 µM.

For test [6], the target named is T6, pseudokinase JH2 domain of JAK1 (Homo sapiens, UniProt P23458).
T6 construct: the pseudokinase JH2 domain of JAK1 (89%); purchased Ambit Biosciences (scanMAXX KINOMEscan)
T6 sequence (P23458 583-855 limits assumed): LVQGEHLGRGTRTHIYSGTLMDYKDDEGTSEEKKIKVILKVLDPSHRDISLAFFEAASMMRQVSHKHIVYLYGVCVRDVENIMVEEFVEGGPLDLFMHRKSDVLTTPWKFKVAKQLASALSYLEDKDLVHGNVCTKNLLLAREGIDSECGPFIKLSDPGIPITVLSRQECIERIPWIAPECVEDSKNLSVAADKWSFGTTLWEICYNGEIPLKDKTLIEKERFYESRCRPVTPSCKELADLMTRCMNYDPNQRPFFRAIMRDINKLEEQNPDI
The test is described as follows: KINOMEscan, JAK1 JH2 domain. As to conditions: for remaining binding at 1 µM / remaining binding at 10 µM: kinase JAK1(JH2domain-pseudokinase); for remaining binding at 1 µM: read-out: % of control at 1 µM; for remaining binding at 10 µM: read-out: % of control at 10 µM.

Setting [7] is: 10 µM, read-out: % of control at 10 µM.

T1 sequence (Q04912 25-1400): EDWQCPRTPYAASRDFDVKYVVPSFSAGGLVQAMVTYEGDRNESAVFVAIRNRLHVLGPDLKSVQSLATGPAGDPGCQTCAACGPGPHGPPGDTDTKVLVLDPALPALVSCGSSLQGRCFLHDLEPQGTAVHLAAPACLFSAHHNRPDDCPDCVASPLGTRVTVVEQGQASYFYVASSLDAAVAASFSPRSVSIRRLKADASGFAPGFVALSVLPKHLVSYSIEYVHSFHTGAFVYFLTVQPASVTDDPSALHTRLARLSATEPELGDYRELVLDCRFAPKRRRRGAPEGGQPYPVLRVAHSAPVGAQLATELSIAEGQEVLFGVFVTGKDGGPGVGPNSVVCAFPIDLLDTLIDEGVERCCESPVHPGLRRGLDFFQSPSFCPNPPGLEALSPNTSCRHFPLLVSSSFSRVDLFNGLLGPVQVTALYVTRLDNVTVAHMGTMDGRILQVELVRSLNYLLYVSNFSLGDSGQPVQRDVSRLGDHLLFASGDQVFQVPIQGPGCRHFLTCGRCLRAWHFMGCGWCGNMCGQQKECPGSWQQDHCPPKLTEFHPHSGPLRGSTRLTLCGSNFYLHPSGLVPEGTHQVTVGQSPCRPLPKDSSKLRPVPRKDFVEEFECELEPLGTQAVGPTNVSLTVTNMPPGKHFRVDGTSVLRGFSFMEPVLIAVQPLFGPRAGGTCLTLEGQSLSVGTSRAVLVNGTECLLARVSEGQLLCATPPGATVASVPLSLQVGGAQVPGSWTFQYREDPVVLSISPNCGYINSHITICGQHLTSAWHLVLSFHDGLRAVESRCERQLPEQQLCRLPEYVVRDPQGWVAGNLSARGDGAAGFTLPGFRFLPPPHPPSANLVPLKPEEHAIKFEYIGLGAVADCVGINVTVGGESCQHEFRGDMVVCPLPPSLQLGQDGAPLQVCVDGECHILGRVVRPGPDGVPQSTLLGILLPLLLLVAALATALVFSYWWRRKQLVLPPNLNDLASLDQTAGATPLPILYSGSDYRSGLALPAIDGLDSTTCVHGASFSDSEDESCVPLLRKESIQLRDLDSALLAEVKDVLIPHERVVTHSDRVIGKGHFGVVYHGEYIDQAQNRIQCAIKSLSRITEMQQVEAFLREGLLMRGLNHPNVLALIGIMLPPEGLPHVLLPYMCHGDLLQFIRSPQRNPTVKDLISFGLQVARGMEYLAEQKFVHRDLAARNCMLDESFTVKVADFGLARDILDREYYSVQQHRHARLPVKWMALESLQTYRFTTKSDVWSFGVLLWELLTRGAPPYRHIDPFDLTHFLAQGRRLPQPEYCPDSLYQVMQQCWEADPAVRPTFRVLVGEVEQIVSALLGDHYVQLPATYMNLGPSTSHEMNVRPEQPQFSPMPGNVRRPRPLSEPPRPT
T2 sequence (Q8TDR2 whole entry): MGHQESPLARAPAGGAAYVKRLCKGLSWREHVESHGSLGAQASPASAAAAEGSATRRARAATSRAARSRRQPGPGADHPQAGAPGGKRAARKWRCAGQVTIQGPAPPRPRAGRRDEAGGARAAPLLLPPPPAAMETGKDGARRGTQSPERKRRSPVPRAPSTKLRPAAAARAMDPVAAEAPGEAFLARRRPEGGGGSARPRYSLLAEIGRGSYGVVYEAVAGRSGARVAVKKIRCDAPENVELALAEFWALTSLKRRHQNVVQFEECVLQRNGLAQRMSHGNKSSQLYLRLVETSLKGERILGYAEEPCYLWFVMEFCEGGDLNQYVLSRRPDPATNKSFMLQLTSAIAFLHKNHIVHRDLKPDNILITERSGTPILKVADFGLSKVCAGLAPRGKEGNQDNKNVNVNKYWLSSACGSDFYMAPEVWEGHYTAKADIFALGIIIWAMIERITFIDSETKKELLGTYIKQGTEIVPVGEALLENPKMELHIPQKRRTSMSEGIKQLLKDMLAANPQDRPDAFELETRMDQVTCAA

Take `Nc1cc(C(F)(F)F)c(-c2cc(N3CCOCC3)nc(N3CCOCC3)n2)cn1` [Buparlisib]: the remaining activity at 1 µM in test [1] worked out at 74%; in test [2] it was 99%; in test [3], 89%; in test [4], 87%; in test [5], 100%. In addition, the remaining activity at 10 µM in test [1] (setting [7]) turned out to be 100%; in test [2] (10 µM, read-out: STK35 (% of control at 10 µM)), 98%; in test [3] (setting [7]), 100%; in test [4] (setting [7]), 94%; in test [5] (setting [7]) it was 100%. Besides, the remaining binding at 1 µM in test [6] was found to be 89%. Besides, the remaining binding at 10 µM in test [6] was 76%.
In the case of `Cn1c(=O)n(-c2ccc(C(C)(C)C#N)cc2)c2c3cc(-c4cnc5ccccc5c4)ccc3ncc21` [Dactolisib, 2-methyl-2-[4-(3-methyl-2-oxo-8-quinolin-3-yl-2,3-dihydroimidazo[4,5-c]quinolin-1-yl)-phenyl] propionitrile], the remaining activity at 1 µM in test [1] was 60%; in test [2], 73%; in test [3], 90%; in test [4], 100%; in test [5], 89%. Moreover, the remaining binding at 1 µM in test [6] stood at 43%.
Regarding `FC(F)c1nc2ccccc2n1-c1nc(N2CCOCC2)nc(N2CCOCC2)n1` [ZSTK474, 2-(difluoromethyl)-1-[4,6-di(4-morpholinyl)-1,3,5-triazin-2-yl]-1H-benzimidazole], the remaining activity at 1 µM in test [1] was 92%; in test [2] it was 89%; in test [3] it was 100%; in test [4] it was 100%; in test [5], 100%. In addition, the remaining binding at 1 µM in test [6] turned out to be 100%.
Usually inhibition stands for how much of the control response was suppressed. Lower therefore signals a weak effect. The compound `CS(=O)(=O)N1CCN(Cc2cc3nc(-c4cccc5[nH]ncc45)nc(N4CCOCC4)c3s2)CC1` [Pictilisib, 2-(1H-indazol-4-yl)-6-(4-methanesulfonyl-piperazin-1-ylmethyl)-4-morpholin-4-yl-t hieno[3,2-d]pyrimidine] displayed an inhibition at 1 µM in test [6] (1 μM) of 89%. In test [6], the remaining binding at 1 µM was determined as 11% and the remaining binding at 10 µM worked out at 0.85%.
Consider `COc1ncc(-c2ccc3nccc(-c4ccnnc4)c3c2)cc1NS(=O)(=O)c1ccc(F)cc1F` [Omipalisib], for which the remaining activity at 1 µM turned out to be 95% in test [1]; 100% in test [2]; 96% in test [3]; 100% in test [4]; 100% in test [5]. In test [6], the remaining binding at 1 µM came out at 57%.
